Test results: patent EP4159213A1, “PHARMACEUTICAL COMPOSITIONS FOR USE IN PREVENTION AND/OR TREATMENT AND/OR CURE OF HEPATITIS B VIRUS” (Katholieke Universiteit Leuven, priority 2021, dated 2023)
Where two headings read alike, the source gives them in different places. Residues, ends and D or L forms follow the SMILES beside them.

Molecular target: T1, human NTCP (Homo sapiens, UniProt Q14973)
T1 sequence (Q14973 1-349): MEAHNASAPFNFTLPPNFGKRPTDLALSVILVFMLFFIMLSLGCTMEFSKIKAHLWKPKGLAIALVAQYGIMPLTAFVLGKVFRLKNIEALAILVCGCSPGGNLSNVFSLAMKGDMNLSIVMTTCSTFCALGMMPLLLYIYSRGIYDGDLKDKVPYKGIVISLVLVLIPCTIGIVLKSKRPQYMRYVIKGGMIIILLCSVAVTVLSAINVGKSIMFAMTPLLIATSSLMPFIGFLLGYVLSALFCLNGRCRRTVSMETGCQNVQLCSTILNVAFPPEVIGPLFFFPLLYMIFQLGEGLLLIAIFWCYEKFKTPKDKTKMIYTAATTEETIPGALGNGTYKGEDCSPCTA
Assay: Inhibition of tauro-nor-THCA-24-DBD uptake in NTCP-transfected CHO cells
Assay type: cell-based
Set-up: expressed in transfected cells; host or cells: CHO cells, geneticin selection, expression induced with sodium butyrate
Conditions: for concentration-dependent inhibition of tauro-nor-THCA-24-DBD uptake: multiple inhibitor concentrations
Procedure: The cells were placed in an incubator at 37 °C and 5% CO2. The culture medium consisted of DMEM with 1 g·L^-1 glucose and 25 mM HEPES, supplemented with 10% FBS, 0.05 mg·mL^-1 L-proline, 100 IU·mL^-1 penicillin, 100 […], 2 mM glutamine, 0.11 mg·mL^-1 sodium pyruvate. To ensure selection of NTCP-transfected cells, 0.5 mg·mL^-1 geneticin was added to the medium of the transfected cells. Cells were seeded in black 96-well plates with transparent bottom at a density of 6000 cells·well^-1 and 4000 cells·well^-1 for wild-type and transfected cells, respectively. The medium was replaced every other day and 5 mM sodium butyrate was added to induce protein expression at least 36 h before the start of the experiments. Experiments were performed on day 4 or 5 after seeding when confluence was reached.
Furthermore, to analyse the uptake experiments in NTCP-transfected CHO cells, cells were rinsed twice with 200 µL-well^-1 uptake buffer (HBSS containing 10 mM HEPES, pH 7.4) at 37 °C and subsequently preincubated with 100 µL uptake buffer for 15 minutes. For inhibition experiments, compounds were added at double concentration during preincubation. Uptake was initiated by adding 100 µL double-concentrated tauro-nor-THCA-24-DBD solution in uptake buffer. Cells were incubated for 15 minutes. The reaction was quenched by aspirating the incubation mixture and washing four times with ice cold uptake buffer. The cells were lysed with 100 µL 0.5% Triton X-100 in PBS and placed on a plate shaker (300 rpm) at room temperature for 30 minutes. Uptake of tauro-nor-THCA-24-DBD was determined using fluorescence spectroscopy (excitation 440 nm, emission 580 nm) using a Tecan Infinite 200 plate reader (Tecan Benelux, Mechelen, Belgium). Protein content of each well was determined with the BCA Protein assay (Thermo Fisher Scientific, Waltham, MA) performed according to the manufacturer's protocol. Uptake kinetics of tauro-nor-THCA-24-DBD were determined by incubating eight different concentrations in the absence of any compound. […] All conditions were tested in triplicate.
Uptake of tauro-nor-THCA-24-DBD in presence of compounds was expressed to uptake of the control for each batch, i.e. when no compound was present.
For determination of the IC50, the uptake in presence of various concentrations of inhibitor was fitted to the sigmoid Emax model: E = Emax −(Emax−E0) × (([I])^n)/(([I])^n + IC50^n) [formula] with E the uptake of tauro-nor-THCA-24-DBD, E0 the uptake at maximal inhibition by the compound, Emax the uptake at minimal inhibition, IC50 the concentration of the inhibitor at half maximal inhibition, n the Hill coefficient and [I] the concentration of the inhibitor. All curves were fitted with nonlinear least squares regression using R version 3.5.1.
Assuming competitive inhibition, the Cheng-Prusoff equation was used to determine the Ki value: Ki = (IC50)/(1 + ([S])/(Km)) [formula] where Ki is the binding affinity of the inhibitor, IC50 the concentration of the inhibitor at half maximal inhibition, [S] the substrate concentration, and Km the Michaelis-Menten constant of the substrate.

[1] = 3 µM tauro-nor-THCA-24-DBD, Cheng-Prusoff from IC50, screening hits, read-out: Ki
[2] = compound at equimolar concentration with 3 µM tauro-nor-THCA-24-DBD, triplicate
[3] = 3 µM tauro-nor-THCA-24-DBD, values given with ± spread, read-out: Ki
[4] = 3 µM tauro-nor-THCA-24-DBD, 15 minutes, Cheng-Prusoff from IC50, known NTCP inhibitors, read-out: Ki ± SE

Molecule | Ki [1] [nM] | Uptake of tauro-nor-THCA-24-DBD (% of control) [2] | also measured
Cc1cc2c(C(C)C)c(O)c(O)c(C=O)c2c(O)c1-c1c(C)cc2c(C(C)C)c(O)c(O)c(C=O)c2c1O [Gossypol] | 400 | 12.48 % of control | –
COc1cc2c(cc1OC)[C@@H]1C(=O)c3ccc4c(c3O[C@@H]1CO2)C=CC(C)(C)O4 [(-)-Deguelin] | 1670 | 27.97 % of control | –
N[C@@H](Cc1ccccc1)C(=O)N[C@@H](Cc1ccc(O)cc1)C(=O)O [Phenylalanyltyrosine] (H-Phe-Tyr-OH) | – | 47.22 % of control | –
Oc1c(Cl)c(Cl)c(Cl)c(Cl)c1Cl [Pentachlorophenol] | 2270 | 46.29 % of control | –
CC[C@H]1OC(=O)[C@H](C)[C@@H](O[C@H]2C[C@@](C)(OC)[C@@H](O)[C@H](C)O2)[C@H](C)[C@@H](O[C@@H]2O[C@H](C)C[C@H](N(C)C)[C@H]2O)[C@](C)(O)C[C@@H](C)C(=O)[C@H](C)[C@@H](O)[C@]1(C)O [erythromycin] | – | – | concentration-dependent inhibition of tauro-nor-THCA-24-DBD uptake (3 µM tauro-nor-THCA-24-DBD): Only candesartan showed inhibition
O=c1c(O)c(-c2ccc(O)c(O)c2)oc2cc(O)cc(O)c12 [quercetin] | – | – | concentration-dependent inhibition of tauro-nor-THCA-24-DBD uptake (3 µM tauro-nor-THCA-24-DBD): did not show concentration-dependent inhibition
Oligomycin (A shown) | 260 | 33.87 % of control | –
COc1ccc(-c2oc3c(CC=C(C)C)c(O)cc(O)c3c(=O)c2O[C@@H]2O[C@@H](C)[C@H](O)[C@@H](O)[C@H]2O)cc1 [Baohuoside I] | – | – | concentration-dependent inhibition of tauro-nor-THCA-24-DBD uptake (3 µM tauro-nor-THCA-24-DBD): showed concentration-dependent inhibition; Ki [3]: 12600 ± 4100 nM
COc1c(CC=C(C)C)c2c(c3oc(=O)c(-c4ccc(O)cc4)c(O)c13)C=CC(C)(C)O2 [Scandenin] | – | 38.92 % of control | –
Oc1c(Cl)cc(Cl)c(Cl)c1Cc1c(O)c(Cl)cc(Cl)c1Cl [Hexachlorophene] | – | 23.92 % of control | Ki: 260 nM
COc1cc(-c2coc3cc(OCc4ccccc4)c(OC)c(O)c3c2=O)cc(O)c1OC [Irigenin, 7-benzyl ether] | 13000 | 46.71 % of control | –
O=C1c2c(O)cc(O)cc2OC(c2ccc(O)cc2)C1c1c(O)cc(O)c2c(=O)cc(-c3ccc(O)c(O)c3)oc12 (stereo not drawn) [fukugetin] | – | – | concentration-dependent inhibition of tauro-nor-THCA-24-DBD uptake (3 µM tauro-nor-THCA-24-DBD): showed concentration-dependent inhibition
Echinocystic acid | – | 24.64 % of control | –
COP(=S)(OC)Oc1ccc(Sc2ccc(OP(=S)(OC)OC)cc2)cc1 [Temefos] | 4160 | 38.51 % of control | –
Cc1cc2c(C(=O)NC[C@H](C)c3ccccc3)c(O)c(O)cc2c(O)c1-c1c(C)cc2c(C(=O)NC[C@H](C)c3ccccc3)c(O)c(O)cc2c1O [sabutoclax] | – | – | concentration-dependent inhibition of tauro-nor-THCA-24-DBD uptake (3 µM tauro-nor-THCA-24-DBD): showed concentration-dependent inhibition; Ki [3]: 522 ± 77 nM
Cc1cc(O)c(C=O)c(O)c1C(=O)O [Haematommic acid] | – | 49.33 % of control | –
O=C(Nc1ccc([N+](=O)[O-])cc1Cl)c1cc(Cl)ccc1O [Niclosamide] | 80 | 35.45 % of control | –
O=C(O)c1cc([N+](=O)[O-])ccc1NCCCc1ccccc1 [5-nitro-2-phenylpropylaminobenzoic acid] | 820 | 49.55 % of control | –
CCCCCc1c2c(cc(O)c1C(=O)O)OC(=O)c1c(cc(OC)cc1C(=O)CCCC)O2 [Lobaric acid] | 360 | 9.70 % of control | –
COc1cc(OC)c2ccc(=O)oc2c1 [Citropten] | – | 46.97 % of control | –
CCOc1nc2cccc(C(=O)OC(C)OC(=O)OC3CCCCC3)c2n1Cc1ccc(-c2ccccc2-c2nnn[nH]2)cc1 (stereo not drawn) [Candesartan cilextil] | 340 | 19.76 % of control | –
Cn1nnnc1SCC1=C(C(=O)O)N2C(=O)[C@@H](NC(=O)[C@H](O)c3ccccc3)[C@H]2SC1 [Cefamandole sodium] | 2070 | 23.97 % of control | –
O=C(OC[C@H]1O[C@@H](OC(=O)c2cc(O)c(O)c(OC(=O)c3cc(O)c(O)c(O)c3)c2)[C@H](OC(=O)c2cc(O)c(O)c(OC(=O)c3cc(O)c(O)c(O)c3)c2)[C@@H](OC(=O)c2cc(O)c(O)c(OC(=O)c3cc(O)c(O)c(O)c3)c2)[C@@H]1OC(=O)c1cc(O)c(O)c(OC(=O)c2cc(O)c(O)c(O)c2)c1)c1cc(O)c(O)c(OC(=O)c2cc(O)c(O)c(O)c2)c1 [Tannic acid] | 350 | 8.31 % of control | –
CN[C@@H]1[C@@H](O)[C@@H](O[C@@H]2[C@@H](O)[C@H](O[C@H]3O[C@H]([C@@H](C)O)[C@@H](O)[C@H](O)[C@H]3N)[C@@H](N)C[C@H]2N)OC[C@]1(C)O [Geneticin] | – | 43.81 % of control | –
COC(=O)CC[C@@H](C)[C@H]1CC[C@H]2[C@@H]3[C@H](O)C[C@@H]4C[C@H](O)CC[C@]4(C)[C@H]3C[C@H](O)[C@]12C [Cholic acid, methyl ester] | – | – | Ki: 2320 nM; Uptake of tauro-nor-THCA-24-DBD (% of control): 37.90 % of control
O=C1OC(c2ccc(O)c(S(=O)(=O)O)c2)(c2ccc(O)c(S(=O)(=O)O)c2)c2c(Br)c(Br)c(Br)c(Br)c21 [Bromosulfophthalein] | – | – | Ki [4]: 10700 ± 3100 nM; concentration-dependent inhibition of tauro-nor-THCA-24-DBD uptake (3 µM tauro-nor-THCA-24-DBD): concentration-dependent manner
COc1ccccc1Oc1c(NS(=O)(=O)c2ccc(C(C)(C)C)cc2)nc(-c2ncccn2)nc1OCCO [Bosentan] | – | – | Ki [4]: 6300 ± 1400 nM; concentration-dependent inhibition of tauro-nor-THCA-24-DBD uptake (3 µM tauro-nor-THCA-24-DBD): concentration-dependent manner
CC(=O)O.Cc1cc2c(C(C)C)c(O)c(O)c(C=O)c2c(O)c1-c1c(C)cc2c(C(C)C)c(O)c(O)c(C=O)c2c1O [Gossypol-acetic acid complex] | 3100 | 36.14 % of control | –
O=C(O)c1ccccc1Nc1cccc(C(F)(F)F)c1 [Flufenamic acid] | 7510 | 44.12 % of control | –
CC(=O)O[C@H]1C[C@H](O[C@H]2[C@@H](O)C[C@H](O[C@H]3[C@@H](O)C[C@H](O[C@H]4CC[C@@]5(C)[C@H](CC[C@@H]6[C@@H]5C[C@@H](O)[C@]5(C)[C@@H](C7=CC(=O)OC7)CC[C@]65O)C4)O[C@@H]3C)O[C@@H]2C)O[C@H](C)[C@H]1O[C@@H]1O[C@H](CO)[C@@H](O)[C@H](O)[C@H]1O [Lanatoside c] | – | – | Ki: 125000 nM; Uptake of tauro-nor-THCA-24-DBD (% of control): 45.13 % of control
